“And” between values parts separate entries of the source, which are not always exact repeats. Equal entries are not always repeated.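 Interpolation was linear, between the two tested concentrations surrounding the appropriate level; five concentrations were tested over 48 hours in 96-well plates. The concentration for 50% growth inhibition is given as GI50. TGI is the concentration that stops growth completely.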
Columns and labels:
Assay in all cases: inhibition of tumour cell growth, NCI panel, 48 h
BT-549 breast = system: BT-549 breast
UACC-257 melanoma = system: UACC-257 melanoma
OVCAR-4 ovarian = system: OVCAR-4 ovarian
MALME-3M melanoma = system: MALME-3M melanoma
HOP-92 NSCLC = system: HOP-92 NSCLC
DU-145 prostate = system: DU-145 prostate
A498 renal = system: A498 renal
ACHN renal = system: ACHN renal
HOP-62 NSCLC = system: HOP-62 NSCLC
HCT-116 colon = system: HCT-116 colon
UO-31 renal = system: UO-31 renal
MDA-MB-231 breast = system: MDA-MB-231 breast
IGROV1 ovarian = system: IGROV1 ovarian
RXF 393 renal = system: RXF 393 renal
SF-539 CNS = system: SF-539 CNS
HCT-15 colon = system: HCT-15 colon
SN12C renal = system: SN12C renal
PC-3 prostate = system: PC-3 prostate
CAKI-1 renal = system: CAKI-1 renal
KM12 colon = system: KM12 colon
TK-10 renal = system: TK-10 renal
SW-620 colon = system: SW-620 colon
SK-MEL-5 melanoma = system: SK-MEL-5 melanoma
SF-295 CNS = system: SF-295 CNS
HS 578T breast = system: HS 578T breast
CCRF-CEM leukemia = system: CCRF-CEM leukemia
EKVX NSCLC = system: EKVX NSCLC
NCI-H226 lung = system: NCI-H226 lung
T-47D breast = system: T-47D breast
OVCAR-8 ovarian = system: OVCAR-8 ovarian
MCF7 breast = system: MCF7 breast
M14 melanoma = system: M14 melanoma
SK-MEL-28 melanoma = system: SK-MEL-28 melanoma
SNB-75 CNS = system: SNB-75 CNS
HT29 colon = system: HT29 colon
U251 CNS = system: U251 CNS
MOLT-4 leukemia = system: MOLT-4 leukemia
SNB-19 CNS = system: SNB-19 CNS
MDA-MB-435 = system: MDA-MB-435
SF-268 CNS = system: SF-268 CNS
OVCAR-3 ovarian = system: OVCAR-3 ovarian
NCI-H460 lung = system: NCI-H460 lung
SR leukemia = system: SR leukemia
786-0 renal = system: 786-0 renal
NCI-H522 lung = system: NCI-H522 lung
SK-MEL-2 melanoma = system: SK-MEL-2 melanoma
SK-OV-3 ovarian = system: SK-OV-3 ovarian
NCI/ADR-RES ovarian = system: NCI/ADR-RES ovarian
HCC-2998 colon = system: HCC-2998 colon
RPMI-8226 leukemia = system: RPMI-8226 leukemia
K-562 leukemia = system: K-562 leukemia
UACC-62 melanoma = system: UACC-62 melanoma
NCI-H23 lung = system: NCI-H23 lung
COLO 205 colon = system: COLO 205 colon
A549 NSCLC = system: A549 NSCLC
HL-60(TB) leukemia = system: HL-60(TB) leukemia
LOX IMVI melanoma = system: LOX IMVI melanoma
OVCAR-5 ovarian = system: OVCAR-5 ovarian

For `C=CC(=O)Nc1cccc(Oc2nc(Nc3ccc(N4CCN(C)CC4)cc3)nc3ccsc23)c1`, the GI50 (BT-549 breast) was 2.8 µM and 3.62 µM, the TGI (BT-549 breast) was > 10 µM and 14.6 µM and the GI50 (UACC-257 melanoma) was 2600 nM and 1980 nM. For the same compound, the TGI (UACC-257 melanoma) was 8.59 µM and 3.83 µM, the GI50 (OVCAR-4 ovarian) was 2740 nM and 3230 nM and the TGI (OVCAR-4 ovarian) was > 10 µM and 11.4 µM. The GI50 (MALME-3M melanoma) was 1630 nM and 1830 nM, the TGI (MALME-3M melanoma) was 3.14 µM and 3.66 µM and the GI50 (HOP-92 NSCLC) was 801 nM and 1810 nM. For the same compound, the TGI (HOP-92 NSCLC) was 6.47 µM and 4.97 µM, the GI50 (DU-145 prostate) was 2410 nM and 2040 nM and the TGI (DU-145 prostate) was > 10 µM and 6.24 µM. For the same compound, the GI50 (A498 renal) was 3510 nM and 862 nM, the TGI (A498 renal) was > 10 µM and 9.65 µM and the GI50 (ACHN renal) was 1070 nM. For the same compound, the TGI (ACHN renal) was 2510 nM, the GI50 (HOP-62 NSCLC) was 3.71 µM and 3.73 µM and the TGI (HOP-62 NSCLC) was > 10 µM and 15.7 µM. For the same compound, the GI50 (HCT-116 colon) was 1480 nM and 1810 nM, the TGI (HCT-116 colon) was 2.93 µM and 3.33 µM and the GI50 (UO-31 renal) was 962 nM and 1110 nM. The TGI (UO-31 renal) was 3.69 µM and 3.38 µM, the GI50 (MDA-MB-231 breast) was 2250 nM and 2240 nM and the TGI (MDA-MB-231 breast) was 6.44 µM and 5.78 µM. The GI50 (IGROV1 ovarian) was 1420 nM and 1750 nM, the TGI (IGROV1 ovarian) was 3.05 µM and 4.58 µM and the GI50 (RXF 393 renal) was 1540 nM. The TGI (RXF 393 renal) was 3.31 µM and 4.26 µM, the GI50 (SF-539 CNS) was 1620 nM and 1750 nM and the TGI (SF-539 CNS) was 3.02 µM and 3.23 µM. The GI50 (HCT-15 colon) was 2320 nM and 2540 nM, the TGI (HCT-15 colon) was 9.5 µM and 10.6 µM and the GI50 (SN12C renal) was 1580 nM and 1610 nM. For the same compound, the TGI (SN12C renal) was 4.35 µM and 4.61 µM, the GI50 (PC-3 prostate) was 2360 nM and 2870 nM and the TGI (PC-3 prostate) was 8.25 µM and 7.33 µM. The GI50 (CAKI-1 renal) was 1990 nM, the TGI (CAKI-1 renal) was over 10 µM and the GI50 (KM12 colon) was 3360 nM and 2490 nM. The TGI (KM12 colon) was > 10 µM and 6.77 µM, the GI50 (TK-10 renal) was 398 nM and 600 nM and the TGI (TK-10 renal) was 2.56 µM and 4.04 µM. The GI50 (SW-620 colon) was 2070 nM and 1920 nM, the TGI (SW-620 colon) was 4.61 µM and 4.07 µM and the GI50 (SK-MEL-5 melanoma) was 1640 nM and 1750 nM. The TGI (SK-MEL-5 melanoma) was 3.05 µM and 3.16 µM, the GI50 (SF-295 CNS) was 7.68 µM and the TGI (SF-295 CNS) was > 10 µM and 21.3 µM. For the same compound, the GI50 (HS 578T breast) was 6.16 µM and 4.88 µM, the TGI (HS 578T breast) was > 10 µM and 41.3 µM and the GI50 (CCRF-CEM leukemia) was 2600 nM. For the same compound, the TGI (CCRF-CEM leukemia) was 9.88 µM, the GI50 (EKVX NSCLC) was 1550 nM and 2390 nM and the TGI (EKVX NSCLC) was > 10 µM and 16.7 µM. For the same compound, the GI50 (NCI-H226 lung) was 8.23 µM and 10.4 µM, the TGI (NCI-H226 lung) was > 10 µM and 36.9 µM and the GI50 (T-47D breast) was 9.72 µM and 5.29 µM. The TGI (T-47D breast) was > 10 µM and 27 µM, the GI50 (OVCAR-8 ovarian) was 3.59 µM and 3.63 µM and the TGI (OVCAR-8 ovarian) was > 10 µM and 11.7 µM. The GI50 (MCF7 breast) was 2220 nM and 1720 nM, the TGI (MCF7 breast) was 8.96 µM and 4.48 µM and the GI50 (M14 melanoma) was 1870 nM and 2010 nM. For the same compound, the TGI (M14 melanoma) was 3.75 µM and 3.8 µM, the GI50 (SK-MEL-28 melanoma) was 1870 nM and 1890 nM and the TGI (SK-MEL-28 melanoma) was 3.49 µM and 3.71 µM. For the same compound, the GI50 (SNB-75 CNS) was 1540 nM and 2100 nM, the TGI (SNB-75 CNS) was > 10 µM and 10.5 µM and the GI50 (HT29 colon) was 1910 nM and 2720 nM. The TGI (HT29 colon) was 4.05 µM and 5.81 µM, the GI50 (U251 CNS) was 2890 nM and 2970 nM and the TGI (U251 CNS) was > 10 µM and 9.01 µM. The GI50 (MOLT-4 leukemia) was 2530 nM and 1720 nM, the TGI (MOLT-4 leukemia) was 7.08 µM and 5.53 µM and the GI50 (SNB-19 CNS) was 3.51 µM and 3.35 µM. For the same compound, the TGI (SNB-19 CNS) was > 10 µM and 14.1 µM, the GI50 (MDA-MB-435) was 1710 nM and 1930 nM and the TGI (MDA-MB-435) was 3.69 µM and 4.12 µM. For the same compound, the GI50 (SF-268 CNS) was 3.48 µM and 2.73 µM, the TGI (SF-268 CNS) was > 10 µM and 12.9 µM and the GI50 (OVCAR-3 ovarian) was 2110 nM and 1880 nM. The TGI (OVCAR-3 ovarian) was 9.29 µM and 4.79 µM, the GI50 (NCI-H460 lung) was 3.26 µM and 3.19 µM and the TGI (NCI-H460 lung) was > 10 µM and 12.6 µM. The GI50 (SR leukemia) was 2230 nM, the TGI (SR leukemia) was 5.73 µM and the GI50 (786-0 renal) was 1300 nM and 2070 nM. The TGI (786-0 renal) was 3.25 µM and 4.62 µM, the GI50 (NCI-H522 lung) was 430 nM and 1270 nM and the TGI (NCI-H522 lung) was 2210 nM and 3040 nM. The GI50 (SK-MEL-2 melanoma) was 2850 nM and 2490 nM, the TGI (SK-MEL-2 melanoma) was 8.48 µM and 5 µM and the GI50 (SK-OV-3 ovarian) was 307 nM and 508 nM. The TGI (SK-OV-3 ovarian) was > 10 µM and 14 µM, the GI50 (NCI/ADR-RES ovarian) was 2.73 µM and 3.3 µM and the TGI (NCI/ADR-RES ovarian) was > 10 µM and 20.1 µM. For the same compound, the GI50 (HCC-2998 colon) was 14.8 µM, the TGI (HCC-2998 colon) was > 10 µM and 32.3 µM and the GI50 (RPMI-8226 leukemia) was 2010 nM and 1960 nM. For the same compound, the TGI (RPMI-8226 leukemia) was 4.91 µM and 4.62 µM, the GI50 (K-562 leukemia) was 2030 nM and 2150 nM and the TGI (K-562 leukemia) was 4.97 µM and 4.87 µM. For the same compound, the GI50 (UACC-62 melanoma) was 1590 nM and 1740 nM, the TGI (UACC-62 melanoma) was 3.17 µM and 3.67 µM and the GI50 (NCI-H23 lung) was 4.27 µM and 9.48 µM. The TGI (NCI-H23 lung) was > 10 µM and 36.4 µM, the GI50 (COLO 205 colon) was 2190 nM and the TGI (COLO 205 colon) was 5.27 µM. For the same compound, the GI50 (A549 NSCLC) was 3.47 µM and 3.71 µM, the TGI (A549 NSCLC) was > 10 µM and 17.6 µM and the GI50 (HL-60(TB) leukemia) was 1430 nM. The TGI (HL-60(TB) leukemia) was 4.09 µM, the GI50 (LOX IMVI melanoma) was 1690 nM and 1750 nM and the TGI (LOX IMVI melanoma) was 3.09 µM and 3.33 µM. The GI50 (OVCAR-5 ovarian) was 3.61 µM and 8.09 µM and the TGI (OVCAR-5 ovarian) was > 10 µM and 25.2 µM.

Reference: PubChem BioAssay (NCI)
